Source: US20260226427A1, “TEST SYSTEM COMPRISING STABLY CYP-TRANSFECTED OR TRANSDUCED MAMMALIAN CELLS” (BRANDENBURGISCHE TECHNISCHE UNIVERSITÄT COTTBUS-SENFTENBERG, priority 2023, published 2026)
Read-outs that look alike come from different tables or passages of the source.

How the values were obtained:
CYP1A2 = target: T1, CYP1A2 (Homo sapiens, UniProt P05177)
T1 sequence (P05177 2-516 limits assumed): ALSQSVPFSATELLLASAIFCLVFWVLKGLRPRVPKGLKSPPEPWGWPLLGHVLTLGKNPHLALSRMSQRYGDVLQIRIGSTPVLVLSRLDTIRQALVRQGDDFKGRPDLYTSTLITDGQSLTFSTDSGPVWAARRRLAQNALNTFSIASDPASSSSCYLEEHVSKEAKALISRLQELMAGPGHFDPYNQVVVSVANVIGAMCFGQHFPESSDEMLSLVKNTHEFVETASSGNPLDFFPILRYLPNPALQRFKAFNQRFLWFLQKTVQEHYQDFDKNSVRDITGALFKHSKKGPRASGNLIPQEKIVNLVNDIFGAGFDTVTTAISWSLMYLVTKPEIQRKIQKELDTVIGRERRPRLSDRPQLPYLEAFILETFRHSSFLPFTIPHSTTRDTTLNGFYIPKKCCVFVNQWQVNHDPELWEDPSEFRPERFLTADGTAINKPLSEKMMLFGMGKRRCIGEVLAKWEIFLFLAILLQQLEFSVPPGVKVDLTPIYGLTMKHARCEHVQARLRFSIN

CYP3A4 [1] = target: T2, CYP3A4 (Homo sapiens, UniProt P08684)
CYP3A4 [2] = target: T2, CYP3A4; remark: listed apart in the source

T2 sequence (P08684 2-503 limits assumed): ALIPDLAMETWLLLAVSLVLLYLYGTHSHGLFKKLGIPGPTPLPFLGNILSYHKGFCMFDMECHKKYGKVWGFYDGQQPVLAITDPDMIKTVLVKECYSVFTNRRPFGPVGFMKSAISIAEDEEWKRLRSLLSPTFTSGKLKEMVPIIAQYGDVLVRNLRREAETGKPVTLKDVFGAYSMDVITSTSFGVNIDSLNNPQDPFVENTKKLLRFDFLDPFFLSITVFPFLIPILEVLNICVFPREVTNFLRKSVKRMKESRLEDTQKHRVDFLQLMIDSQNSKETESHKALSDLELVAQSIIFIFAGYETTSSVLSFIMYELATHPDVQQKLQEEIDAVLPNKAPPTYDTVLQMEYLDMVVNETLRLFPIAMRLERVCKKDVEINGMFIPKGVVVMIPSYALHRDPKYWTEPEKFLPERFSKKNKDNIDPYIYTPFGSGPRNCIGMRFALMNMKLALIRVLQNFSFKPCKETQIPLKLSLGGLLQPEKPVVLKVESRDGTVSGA

| Compound | phenacetin metabolite production (CYP1A2; 2 h) [µg] | phenacetin metabolite production (CYP1A2; 48 h) [µg] | yield of main metabolite m(acetaminophen) (CYP1A2; 48 h) [µg] | yield of main metabolite m(6β-OH-T) (CYP3A4 [1]) [µg] | yield of main metabolite (6β-hydroxytestosterone) in 200 μL preparation (CYP3A4 [2]) | yield of main metabolite in 200 μL metabolism preparation (CYP3A4 [2]) [ng] |
| --- | --- | --- | --- | --- | --- | --- |
| CCOc1ccc(NC(C)=O)cc1 [phenacetin] | 17 | 101 | 101 ± 4 |  |  |  |
| C[C@]12CC[C@H]3[C@@H](CCC4=CC(=O)CC[C@@]43C)[C@@H]1CC[C@@H]2O [testosterone] |  |  |  | 17.3 ± 1.4 | up to 100 ng | 100 to 200 |
